Tests used:
Type in all cases: cell-based
MOLM16 cells [1] = assay: MTT assay (number of live cells), MOLM16 cells, single inhibitors and combination, Compusyn CI; details: 48 hours
Description: (§1) General experimental procedure: 10,000 (MOLM16) or 20,000 (EOL1) cells were seeded per well in 96-well plates. After culturing overnight, AZD1208 and/or Pladienolide B/SRPIN340 were added to wells in quadruplicates at 5 different concentrations. Different ratios between AZD1208 and Pladienolide B were tried in MOLM16 and EOL1 cells. At 48 hours the MTT metabolism indicative of number of live cells was measured by MTT assay (Promega, Cat: G4000). The resulting values were used to evaluate the Fa (fraction affected) values, which were plugged into the Compusyn software to calculate the combination indices (CI values) at ED50, ED75, ED90 and ED95 (ED—Effective dose of combination).
These values of drug dose and effect (fraction of cells affected by the treatment—FA values) were input into the Compusyn software to estimate the interaction between the two drugs.

EOL1 cells [2] = assay: MTT assay (number of live cells), EOL1 cells, single inhibitors and combination, Compusyn CI; details: 48 hours
Description: as §1
To further confirm the finding in MOLM16 cells, it was tested whether the combination of AZD1208 and Pladienolide B is synergistic in another AML cell line—EOL1. Different ratios between AZD1208 and Pladienolide B were tested to identify the ideal ratio that provides maximum synergy.

MCL1 splice variants [3] = assay: Taqman qRT-PCR for MCL1 splice variants in MOLM16 cells; details: MOLM16, 1 μM, 6 hrs
From the text: (§2) Control=DMSO treated. […] Arrow indicate bands that change after AZD1208 treatment.
(§3) A few targets from the microarray data were chosen, that being, ones that were affected by PIM kinase inhibition. The procedure was manual curation of data, followed by reference seq analysis of splice variants to determine avalibilty of sequence information. Initially, changes in splice variants of a known apoptotic regulator, MCL1 were validated. The smaller isoform of MCL1 is pro-apototic, while the longer isoform has anti-apototic functions.

MCL1 splice variants [4] = assay: Taqman qRT-PCR for MCL1 splice variants in OCI-M1 cells; details: 1 μM, 6 hrs
From the text: as §2, §3

EOL1 cells [5] = assay: Microarray (Affymetrix HTA 2.0) profiling of alternative splicing changes in EOL1 cells
Description: Due to the large number of splicing factors as PIM substrates, a more globally spread regulation of splicing by PIM kinases was envisioned. As such, a microarray approach was chosen to profile the entire transcriptome for changes in alternative splicing, due to inhibition of PIM kinase activity. MOLM16 cells were treated with DMSO/AZD1208 (1 μM) (pan-PIM inhibitor) for 6 hours. This experiment was performed in triplicates and RNA was run on a bioanalyzer to confirm sample intergrity, as outline in FIG. 3. A similar procedure was used for analysis of both MOLM16 and EOL1 cells. After 1 μM AZD1208 treatment for 6 hours, cells were harvested, and total RNA was isolated. The RNA quality was confirmed using a bio-analyzer. High quality RNA samples were further processed and hybridized to Affymetrix HTA 2.0 microarrays. The results obtained were processed using Affymetrix expression console and transcriptome analysis console (TAC) software. […] Similar experiment was also performed for EOL1 cells. […] Each point represents a unique probe selection region and the splicing index values for MOLM16 (X axis) and EOL1 cells (Y axis) are shown. All the points in +X+Y and −X−Y quadrants are splicing changes consistent with directionality of the change. […] Microsoft Excel functions were used to identify the overlap between these lists of splicing changes. […] When the directionality of these changes was considered, it was noted that most of these changes were also consistantly in the same direction (all but 39 out of 2599).

[6] = system: SR protein phosphorylation; assay: Western blot using phospho-SR protein antibody; details: MOLM16 and EOL1 cells, versus DMSO treated controls
Description: MOLM16 and EOL1 cells were treated with AZD1208 or SRPIN340 for indicated concentration and time. Cells lysates from treated cells were used for western blot analysis.
Phosphorylation of splicing factors is known to play a role in regulation of splicing. Phosphorylation of splicing factors called serine arginine rich proteins (SR proteins) is known to regulate their function and localization. Serine arginine rich protein kinases (SRPK1 and SRPK2) phosphorylate these proteins and inhibition of SRPK activity using the small molecule modulator SRPIN340 leads to reduction in phosphorylation. The level of SR protein phosphorylation can be visualized using phospho-SR protein antibody. It was investigated to determine if PIM kinases regulate SRPK activity to indirectly lead to changes in splicing. […] Thus, it was concluded that the SRPK activity was not affected by PIM kinase inhibition.

MOLM16 cells [7] = assay: Microarray (Affymetrix HTA 2.0) profiling of alternative splicing changes in MOLM16 cells; details: MOLM16, 1 μM, 6 hours
Description: Due to the large number of splicing factors as PIM substrates, a more globally spread regulation of splicing by PIM kinases was envisioned. As such, a microarray approach was chosen to profile the entire transcriptome for changes in alternative splicing, due to inhibition of PIM kinase activity. MOLM16 cells were treated with DMSO/AZD1208 (1 μM) (pan-PIM inhibitor) for 6 hours. This experiment was performed in triplicates and RNA was run on a bioanalyzer to confirm sample intergrity, as outline in FIG. 3. A similar procedure was used for analysis of both MOLM16 and EOL1 cells. After 1 μM AZD1208 treatment for 6 hours, cells were harvested, and total RNA was isolated. The RNA quality was confirmed using a bio-analyzer. High quality RNA samples were further processed and hybridized to Affymetrix HTA 2.0 microarrays. The results obtained were processed using Affymetrix expression console and transcriptome analysis console (TAC) software. […] Similar experiment was also performed for EOL1 cells. […] Each point represents a unique probe selection region and the splicing index values for MOLM16 (X axis) and EOL1 cells (Y axis) are shown. All the points in +X+Y and −X−Y quadrants are splicing changes consistent with directionality of the change. […] Microsoft Excel functions were used to identify the overlap between these lists of splicing changes. […]

CHAC1, NFYA and Cog5 = assay: RT-PCR for splice variants of CHAC1, NFYA and Cog5 in MOLM16 cells; details: MOLM16, 1 μM, 6 hrs
From the text: as §2, §3

SMILES: N[C@@H]1CCCN(c2c(/C=C3/SC(=O)NC3=O)cccc2-c2ccccc2)C1 [AZD1208, (5E)-5-[[2-[(3R)-3-aminopiperidin-1-yl]-3-phenylphenyl]methylidene]-1,3-thiazolidine-2,4-dione]
- Effect (fraction of cells affected, FA) (MOLM16 cells [1]; MOLM16, SRPIN340 testing Trial 1, 0.03 μM): 0.396
- Effect (fraction of cells affected, FA) (MOLM16 cells [1]; MOLM16, SRPIN340 testing Trial 1, 0.06 μM): 0.521
- Effect (fraction of cells affected, FA) (MOLM16 cells [1]; MOLM16, SRPIN340 testing Trial 1, 0.12 μM): 0.628
- Effect (fraction of cells affected, FA) (MOLM16 cells [1]; MOLM16, Trial 1, 0.024 μM): 0.415
- Effect (fraction of cells affected, FA) (MOLM16 cells [1]; MOLM16, Trial 1, 0.048 μM): 0.471
- Effect (fraction of cells affected, FA) (MOLM16 cells [1]; MOLM16, Trial 1, 0.072 μM): 0.564
- Effect (fraction of cells affected, FA) (MOLM16 cells [1]; MOLM16, Trial 1, 0.096 μM): 0.594
- Effect (fraction of cells affected, FA) (MOLM16 cells [1]; MOLM16, Trial 1, 0.12 μM): 0.614
- Effect (fraction of cells affected, FA) (MOLM16 cells [1]; MOLM16, Trial 2, 0.024 μM): 0.337
- Effect (fraction of cells affected, FA) (MOLM16 cells [1]; MOLM16, Trial 2, 0.048 μM): 0.478
- Effect (fraction of cells affected, FA) (MOLM16 cells [1]; MOLM16, Trial 2, 0.072 μM): 0.534
- Effect (fraction of cells affected, FA) (MOLM16 cells [1]; MOLM16, Trial 2, 0.096 μM): 0.566
- Effect (fraction of cells affected, FA) (MOLM16 cells [1]; MOLM16, Trial 2, 0.12 μM): 0.622
- Effect (fraction of cells affected, FA) (MOLM16 cells [1]; MOLM16, Trial 3, 0.024 μM): 0.344
- Effect (fraction of cells affected, FA) (MOLM16 cells [1]; MOLM16, Trial 3, 0.048 μM): 0.455
- Effect (fraction of cells affected, FA) (MOLM16 cells [1]; MOLM16, Trial 3, 0.072 μM): 0.524
- Effect (fraction of cells affected, FA) (MOLM16 cells [1]; MOLM16, Trial 3, 0.096 μM): 0.554
- Effect (fraction of cells affected, FA) (MOLM16 cells [1]; MOLM16, Trial 3, 0.12 μM): 0.606
- Effect (fraction of cells affected, FA) (EOL1 cells [2]; EOL1, Trial 1, 0.024 μM): 0.395
- Effect (fraction of cells affected, FA) (EOL1 cells [2]; EOL1, Trial 1, 0.048 μM): 0.529
- Effect (fraction of cells affected, FA) (EOL1 cells [2]; EOL1, Trial 1, 0.072 μM): 0.675
- Effect (fraction of cells affected, FA) (EOL1 cells [2]; EOL1, Trial 1, 0.096 μM): 0.684
- Effect (fraction of cells affected, FA) (EOL1 cells [2]; EOL1, Trial 1, 0.12 μM): 0.680
- Effect (fraction of cells affected, FA) (EOL1 cells [2]; EOL1, Trial 2, 0.024 μM): 0.432
- Effect (fraction of cells affected, FA) (EOL1 cells [2]; EOL1, Trial 2, 0.048 μM): 0.587
- Effect (fraction of cells affected, FA) (EOL1 cells [2]; EOL1, Trial 2, 0.072 μM): 0.650
- Effect (fraction of cells affected, FA) (EOL1 cells [2]; EOL1, Trial 2, 0.096 μM): 0.683
- Effect (fraction of cells affected, FA) (EOL1 cells [2]; EOL1, Trial 2, 0.12 μM): 0.698
- Effect (fraction of cells affected, FA) (EOL1 cells [2]; EOL1, Trial 3, 0.024 μM): 0.373
- Effect (fraction of cells affected, FA) (EOL1 cells [2]; EOL1, Trial 3, 0.048 μM): 0.523
- Effect (fraction of cells affected, FA) (EOL1 cells [2]; EOL1, Trial 3, 0.072 μM): 0.600
- Effect (fraction of cells affected, FA) (EOL1 cells [2]; EOL1, Trial 3, 0.096 μM): 0.633
- Effect (fraction of cells affected, FA) (EOL1 cells [2]; EOL1, Trial 3, 0.12 μM): 0.642
- level of shorter isoform of MCL1 (MCL1 splice variants [3]): specifically and significantly reduces
- level of both MCL1 splice variants (MCL1 splice variants [4]): did not show any change
- changes in splicing after PIM kinase inhibition (EOL1 cells [5]; EOL1, 1 μM, 6 hrs.): widespread changes were observed in splicing
- overlapping splicing changes not in the same direction (EOL1 cells [5]; out of 2599 changes shared by MOLM16 and EOL1, 1 μM, 6 hours): 39
- splicing changes observed in similar probe selection regions (EOL1 cells [5]; overlap between MOLM16 and EOL1 lists, 1 μM, 6 hours): 2599
- SR protein phosphorylation [6]: does not change SR protein phosphorylation
- gene products with changes in splicing indices (MOLM16 cells [7]): > 5000
- splicing events with changes in splicing indices (MOLM16 cells [7]): > 10,000
- changes in splice variants of CHAC1, NFYA and Cog5 (CHAC1, NFYA and Cog5): in agreement with the microarray data

From patent US10842785B2, “PIM kinase inhibitors in combination with RNA splicing modulators/inhibitors for treatment of cancers” (UNIVERSITY OF MARYLAND, BALTIMORE COUNTY, priority 2016, dated 2020)
